# Reference: paper PMC6934184, “Selective DNA-PKcs inhibition extends the therapeutic index of localized radiotherapy and chemotherapy” (The Journal of Clinical Investigation, 2019)
# Biological target: T1, ACVR2A (Homo sapiens, UniProt P27037)
# T1 construct: purchased Thermo Fisher Scientific (Life Technologies) SelectScreen
# Experiment: SelectScreen LanthaScreen
# Type: binding
# Conditions: read-out: % displacement
# In short: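 Percent values come from Thermo SelectScreen profiling of NU5455, combining activity and binding assays. CSF1R was run in Z'LYTE format at Km app ATP, and CAMK1 in Adapta format with ATP listed at 10.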
# T1 sequence (P27037 20-513): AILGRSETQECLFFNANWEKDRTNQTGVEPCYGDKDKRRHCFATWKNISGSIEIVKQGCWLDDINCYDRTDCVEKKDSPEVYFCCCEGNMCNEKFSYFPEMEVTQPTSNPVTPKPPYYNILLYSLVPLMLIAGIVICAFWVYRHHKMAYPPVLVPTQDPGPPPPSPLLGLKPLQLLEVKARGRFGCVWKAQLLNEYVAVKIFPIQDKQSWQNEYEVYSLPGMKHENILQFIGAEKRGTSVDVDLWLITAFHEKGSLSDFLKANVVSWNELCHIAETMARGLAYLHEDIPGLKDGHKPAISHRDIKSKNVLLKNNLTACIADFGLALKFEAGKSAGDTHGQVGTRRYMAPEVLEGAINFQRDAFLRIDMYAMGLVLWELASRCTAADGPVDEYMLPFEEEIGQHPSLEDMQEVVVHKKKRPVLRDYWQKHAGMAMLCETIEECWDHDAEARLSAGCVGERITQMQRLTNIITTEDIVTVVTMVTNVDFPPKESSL
structure (smiles),measurement,value
CN(C(=O)CN1CCOCC1)c1ccc2sc3c(-c4cccc5c(=O)cc(N6CC7CCC(C6)O7)oc45)cccc3c2c1 [NU5455],inhibition at 1 µM,2.5%
